ChEMBL document CHEMBL1933046, “Synthesis and antibacterial activity of a novel series of acylides active against community acquired respiratory pathogens” (2012)
Values after ≈ are worked out from the molar mass of the structure shown. Active and inactive are the calls of the source. No cut-off for these calls is given here.

Assays:
[1] = tested on: Streptococcus pneumoniae; experiment: Antibacterial activity against Streptococcus pneumoniae 49619 by NCCLS method; type: functional
[2] = tested on: Moraxella catarrhalis; experiment: Antibacterial activity against Moraxella catarrhalis 8176 by NCCLS method; type: functional
[3] = tested on: Streptococcus pneumoniae; experiment: Antibacterial activity against Streptococcus pneumoniae 3579 expressing erm gene by NCCLS method; type: functional
[4] = tested on: Haemophilus influenzae; experiment: Antibacterial activity against Haemophilus influenzae 38 by NCCLS method; type: functional
[5] = tested on: Streptococcus pneumoniae; experiment: Antibacterial activity against Streptococcus pneumoniae 994 expressing mef gene by NCCLS method; type: functional
[6] = tested on: Streptococcus pneumoniae; experiment: Antibacterial activity against Streptococcus pneumoniae 6303 by NCCLS method; type: functional
[7] = tested on: Streptococcus pyogenes; experiment: Antibacterial activity against Streptococcus pyogenes 19615 by NCCLS method; type: functional
[8] = tested on: Streptococcus pneumoniae; experiment: Antibacterial activity against Streptococcus pneumoniae by NCCLS method; type: functional
[9] = tested on: Streptococcus pneumoniae; experiment: Antibacterial activity against telethromycin-resistant Streptococcus pneumoniae 3271 expressing erm gene by NCCLS method; type: functional
[10] = tested on: Streptococcus pneumoniae; experiment: Antibacterial activity against telethromycin-resistant Streptococcus pneumoniae 757 expressing erm gene by NCCLS method; type: functional
[11] = tested on: Streptococcus pneumoniae; experiment: Antibacterial activity against telethromycin-resistant Streptococcus pneumoniae 3489 expressing erm gene by NCCLS method; type: functional
[12] = tested on: Streptococcus pneumoniae; experiment: Antibacterial activity against telethromycin-resistant Streptococcus pneumoniae 5099 expressing erm gene by NCCLS method; type: functional
[13] = tested on: Streptococcus pneumoniae; experiment: Antibacterial activity against telethromycin-resistant Streptococcus pneumoniae AB14 expressing erm gene by NCCLS method; type: functional
[14] = tested on: Streptococcus pneumoniae; experiment: Antibacterial activity against telethromycin-resistant Streptococcus pneumoniae B739 expressing erm gene by NCCLS method; type: functional
[15] = tested on: Streptococcus pneumoniae; experiment: Antibacterial activity against Streptococcus pneumoniae 3579 expressing erm gene infected in mouse systemic infection model; type: functional, organism-based
[16] = tested on: Streptococcus pneumoniae; experiment: Antibacterial activity against telethromycin-resistant Streptococcus pneumoniae 3390 expressing erm gene by NCCLS method; type: functional
[17] = tested on: Streptococcus pneumoniae; experiment: Antibacterial activity against telethromycin-resistant Streptococcus pneumoniae 5051 expressing erm gene by NCCLS method; type: functional
[18] = tested on: Streptococcus pneumoniae; experiment: Antibacterial activity against telethromycin-resistant Streptococcus pneumoniae 2840 expressing erm gene by NCCLS method; type: functional
[19] = tested on: Streptococcus pneumoniae; experiment: Antibacterial activity against telethromycin-resistant Streptococcus pneumoniae 217 expressing erm gene by NCCLS method; type: functional
[20] = tested on: Streptococcus pneumoniae; experiment: Antibacterial activity against telethromycin-resistant Streptococcus pneumoniae 3488 expressing erm gene by NCCLS method; type: functional
[21] = tested on: Streptococcus pneumoniae; experiment: Antibacterial activity against telethromycin-resistant Streptococcus pneumoniae 162 expressing erm gene by NCCLS method; type: functional

Structure (SMILES) | MIC [1] [µg/mL] | MIC [2] [µg/mL] | MIC [3] [µg/mL] | MIC [4] [µg/mL] | MIC [5] [µg/mL] | MIC [6] [µg/mL] | MIC [7] [µg/mL] | other results
CC[C@H]1OC(=O)[C@H](C)[C@@H](OC(=O)Cc2ccccn2)[C@H](C)[C@@H](O[C@@H]2O[C@H](C)C[C@H](N(C)CC)[C@H]2O)[C@](C)(OC)C[C@@H](C)C(=O)[C@H](C)[C@H]2N(CCCCn3cnc(-c4cccnc4)c3)C(=O)O[C@]12C | 0.015 (≈ 0.0158 µM) | 0.25 (≈ 0.264 µM) | 1 (≈ 1.06 µM) | 1 (≈ 1.06 µM) | 0.06 (≈ 0.0633 µM) | 0.06 (≈ 0.0633 µM) | 0.06 (≈ 0.0633 µM) | –
C=CCN(C)[C@H]1C[C@@H](C)O[C@@H](O[C@@H]2[C@@H](C)[C@H](OC(=O)Cc3ccccn3)[C@@H](C)C(=O)O[C@H](CC)[C@@]3(C)OC(=O)N(CCCCn4cnc(-c5ccoc5)c4)[C@@H]3[C@@H](C)C(=O)[C@H](C)C[C@@]2(C)OC)[C@@H]1O | 0.015 (≈ 0.0158 µM) | 0.125 (≈ 0.132 µM) | 0.125 (≈ 0.132 µM) | 0.25 (≈ 0.264 µM) | 0.125 (≈ 0.132 µM) | 0.06 (≈ 0.0633 µM) | 0.06 (≈ 0.0633 µM) | –
CC[C@H]1OC(=O)[C@H](C)[C@@H](OC(=O)Cc2cccnc2)[C@H](C)[C@@H](O[C@@H]2O[C@H](C)C[C@H](N(C)CC)[C@H]2O)[C@](C)(OC)C[C@@H](C)C(=O)[C@H](C)[C@H]2N(CCCCn3cnc(-c4ccc(N)nc4)c3)C(=O)O[C@]12C | 0.06 (≈ 0.0624 µM) | 0.125 (≈ 0.13 µM) | 0.25 (≈ 0.26 µM) | 0.125 (≈ 0.13 µM) | 0.125 (≈ 0.13 µM) | 0.06 (≈ 0.0624 µM) | 0.03 (≈ 0.0312 µM) | –
CC[C@H]1OC(=O)[C@H](C)[C@@H](O[C@H]2C[C@@](C)(OC)[C@@H](O)[C@H](C)O2)[C@H](C)[C@@H](O[C@@H]2O[C@H](C)C[C@H](N(C)C)[C@H]2O)[C@](C)(OC)C[C@@H](C)C(=O)[C@H](C)[C@@H](O)[C@]1(C)O [CLARITHROMYCIN] | 0.125 (≈ 0.167 µM) | 4 (≈ 5.35 µM) | 4 (≈ 5.35 µM) | > 16 | 0.5 (≈ 0.668 µM) | 0.25 (≈ 0.334 µM) | 0.125 (≈ 0.167 µM) | MIC [8]: 0.25 µg/mL (≈ 0.334 µM)
CC[C@H]1OC(=O)[C@H](C)[C@@H](OC(=O)Cc2cccnc2)[C@H](C)[C@@H](O[C@@H]2O[C@H](C)C[C@H](N(C)CC)[C@H]2O)[C@](C)(OC)C[C@@H](C)C(=O)[C@H](C)[C@H]2N(CCCCn3cnc(-c4cccnc4)c3)C(=O)O[C@]12C | 0.03 (≈ 0.0317 µM) | 0.125 (≈ 0.132 µM) | 2 (≈ 2.11 µM) | 1 (≈ 1.06 µM) | 0.125 (≈ 0.132 µM) | 0.06 (≈ 0.0633 µM) | 0.03 (≈ 0.0317 µM) | –
C=CCN(C)[C@H]1C[C@@H](C)O[C@@H](O[C@@H]2[C@@H](C)[C@H](OC(=O)Cc3ccccn3)[C@@H](C)C(=O)O[C@H](CC)[C@@]3(C)OC(=O)N(CCCCn4cnc(-c5cncnc5)c4)[C@@H]3[C@@H](C)C(=O)[C@H](C)C[C@@]2(C)OC)[C@@H]1O | 0.03 (≈ 0.0312 µM) | 0.125 (≈ 0.13 µM) | 0.25 (≈ 0.26 µM) | < 0.06 | 0.06 (≈ 0.0625 µM) | 0.03 (≈ 0.0312 µM) | 0.03 (≈ 0.0312 µM) | –
C=CCN(C)[C@H]1C[C@@H](C)O[C@@H](O[C@@H]2[C@@H](C)[C@H](OC(=O)Cc3ccccn3)[C@@H](C)C(=O)O[C@H](CC)[C@@]3(C)OC(=O)N(CCCCn4cncc4-c4ccco4)[C@@H]3[C@@H](C)C(=O)[C@H](C)C[C@@]2(C)OC)[C@@H]1O | 0.015 (≈ 0.0158 µM) | 0.125 (≈ 0.132 µM) | 0.25 (≈ 0.264 µM) | – | 0.06 (≈ 0.0633 µM) | 0.008 (≈ 0.00844 µM) | 0.015 (≈ 0.0158 µM) | MIC [9]: 1 µg/mL (≈ 1.05 µM); MIC [10]: 0.5 µg/mL (≈ 0.527 µM); MIC [11]: 1 µg/mL (≈ 1.05 µM); MIC [12]: 0.125 µg/mL (≈ 0.132 µM); MIC [13]: 0.125 µg/mL (≈ 0.132 µM); MIC [14]: 1 µg/mL (≈ 1.05 µM); Activity [15]: Active; MIC [16]: 0.25 µg/mL (≈ 0.264 µM); MIC [17]: 0.25 µg/mL (≈ 0.264 µM); MIC [18]: 1 µg/mL (≈ 1.05 µM); MIC [19]: 0.5 µg/mL (≈ 0.527 µM); MIC [20]: 0.25 µg/mL (≈ 0.264 µM); MIC [21]: 2 µg/mL (≈ 2.11 µM)
